Data from the kinase profiling compilation of Christmann-Franck et al. (2016).

Columns and labels:
Experiment in all cases: radiometric filter-binding kinase assay
AURKB (human) = AURKB (human) (UniProt Q96GD4)
CDK2 CCNA2 (human) = CDK2 CCNA2 (human) (UniProt P20248+P24941)
CHEK2 (human) = CHEK2 (human) (UniProt O96017)
CSK (human) = CSK (human) (UniProt P41240)
CSNK2A1 (human) = CSNK2A1 (human) (UniProt P68400)
DAPK1 (human) = DAPK1 (human) (UniProt P53355)
EEF2K (human) = EEF2K (human) (UniProt O00418)
EPHB3 (human) = EPHB3 (human) (UniProt P54753)
ERBB4 (human) = ERBB4 (human) (UniProt Q15303)
FGFR1 (human) = FGFR1 (human) (UniProt P11362)
GSK3B (human) = GSK3B (human) (UniProt P49841)
Chain of GSK3B (human) (P49841 whole entry, looked up): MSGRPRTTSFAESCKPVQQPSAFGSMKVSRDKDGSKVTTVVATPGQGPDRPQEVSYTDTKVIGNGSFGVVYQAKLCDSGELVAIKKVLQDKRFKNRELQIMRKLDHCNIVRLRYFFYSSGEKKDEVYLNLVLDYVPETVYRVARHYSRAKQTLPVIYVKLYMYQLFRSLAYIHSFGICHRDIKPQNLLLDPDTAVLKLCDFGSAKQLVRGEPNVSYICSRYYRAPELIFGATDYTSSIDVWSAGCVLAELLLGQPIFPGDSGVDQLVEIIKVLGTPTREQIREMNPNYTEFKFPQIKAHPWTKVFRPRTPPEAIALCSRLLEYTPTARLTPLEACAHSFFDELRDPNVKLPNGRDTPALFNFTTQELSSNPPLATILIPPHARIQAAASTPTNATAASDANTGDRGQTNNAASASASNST

IKBKB (human) = IKBKB (human) (UniProt O14920)
Chain of IKBKB (human) (O14920 whole entry, looked up): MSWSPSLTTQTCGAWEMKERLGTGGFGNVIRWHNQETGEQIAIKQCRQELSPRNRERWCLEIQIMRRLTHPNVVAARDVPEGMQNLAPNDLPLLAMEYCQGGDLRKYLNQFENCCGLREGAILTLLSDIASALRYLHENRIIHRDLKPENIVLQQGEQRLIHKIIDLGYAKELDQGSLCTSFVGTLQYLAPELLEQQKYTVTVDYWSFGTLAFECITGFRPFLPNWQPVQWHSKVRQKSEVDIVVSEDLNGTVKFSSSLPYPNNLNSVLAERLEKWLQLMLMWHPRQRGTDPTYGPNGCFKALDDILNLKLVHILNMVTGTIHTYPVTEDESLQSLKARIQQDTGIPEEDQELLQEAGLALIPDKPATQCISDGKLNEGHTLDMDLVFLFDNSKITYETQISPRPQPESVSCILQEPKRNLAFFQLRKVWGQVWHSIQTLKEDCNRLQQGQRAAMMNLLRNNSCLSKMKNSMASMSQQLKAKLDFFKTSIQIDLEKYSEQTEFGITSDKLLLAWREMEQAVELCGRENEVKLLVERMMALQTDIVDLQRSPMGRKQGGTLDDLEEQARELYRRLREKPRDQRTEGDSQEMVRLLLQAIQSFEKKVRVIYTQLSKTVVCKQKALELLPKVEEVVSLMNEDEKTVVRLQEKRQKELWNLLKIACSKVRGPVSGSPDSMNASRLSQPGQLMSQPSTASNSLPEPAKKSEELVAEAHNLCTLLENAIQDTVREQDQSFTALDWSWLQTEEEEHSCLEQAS

INSRR (human) = INSRR (human) (UniProt P14616)
LCK (mouse) = settings: accession and sequence are those of the human protein
MAP2K2 (human) = MAP2K2 (human) (UniProt P36507)
MAP3K9 (human) = MAP3K9 (human) (UniProt P80192)
MAPK1 (human) = MAPK1 (human) (UniProt P28482)
Chain of MAPK1 (human) (P28482 whole entry, looked up): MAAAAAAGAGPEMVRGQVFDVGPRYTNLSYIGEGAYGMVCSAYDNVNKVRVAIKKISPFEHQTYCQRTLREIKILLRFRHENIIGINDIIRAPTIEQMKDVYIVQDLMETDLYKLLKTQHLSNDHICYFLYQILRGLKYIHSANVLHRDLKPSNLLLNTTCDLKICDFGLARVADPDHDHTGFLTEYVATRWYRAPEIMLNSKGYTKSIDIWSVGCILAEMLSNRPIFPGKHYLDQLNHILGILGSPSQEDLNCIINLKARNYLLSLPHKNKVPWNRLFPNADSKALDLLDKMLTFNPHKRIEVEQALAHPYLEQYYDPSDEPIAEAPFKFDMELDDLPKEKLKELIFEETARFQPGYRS

MAPK13 (human) = MAPK13 (human) (UniProt O15264); settings: compound 1.0 µM
MAPKAPK3 (human) = MAPKAPK3 (human) (UniProt Q16644)
MARK4 (human) = MARK4 (human) (UniProt Q96L34); settings: compound 1.0 µM
MELK (human) = MELK (human) (UniProt Q14680)
Chain of MELK (human) (Q14680 whole entry, looked up): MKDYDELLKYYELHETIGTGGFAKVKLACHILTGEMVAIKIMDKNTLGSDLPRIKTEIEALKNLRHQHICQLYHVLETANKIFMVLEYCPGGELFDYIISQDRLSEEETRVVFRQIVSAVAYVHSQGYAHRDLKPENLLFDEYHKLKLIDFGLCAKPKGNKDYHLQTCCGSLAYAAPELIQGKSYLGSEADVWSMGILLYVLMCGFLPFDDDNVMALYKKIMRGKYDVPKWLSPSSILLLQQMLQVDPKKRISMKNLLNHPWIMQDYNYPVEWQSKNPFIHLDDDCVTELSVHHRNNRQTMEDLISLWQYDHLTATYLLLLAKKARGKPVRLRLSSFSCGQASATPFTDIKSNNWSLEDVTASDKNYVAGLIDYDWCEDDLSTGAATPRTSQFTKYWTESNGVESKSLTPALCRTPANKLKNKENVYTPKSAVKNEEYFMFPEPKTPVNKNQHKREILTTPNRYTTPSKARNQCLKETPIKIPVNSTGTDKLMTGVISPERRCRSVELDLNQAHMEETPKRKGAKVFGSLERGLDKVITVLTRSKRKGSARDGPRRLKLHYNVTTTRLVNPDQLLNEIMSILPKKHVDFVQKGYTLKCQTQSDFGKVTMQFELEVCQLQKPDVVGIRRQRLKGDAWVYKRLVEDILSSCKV

MINK1 (human) = MINK1 (human) (UniProt Q8N4C8)
MKNK1 (human) = MKNK1 (human) (UniProt Q9BUB5)
Chain of MKNK1 (human) (Q9BUB5 whole entry, looked up): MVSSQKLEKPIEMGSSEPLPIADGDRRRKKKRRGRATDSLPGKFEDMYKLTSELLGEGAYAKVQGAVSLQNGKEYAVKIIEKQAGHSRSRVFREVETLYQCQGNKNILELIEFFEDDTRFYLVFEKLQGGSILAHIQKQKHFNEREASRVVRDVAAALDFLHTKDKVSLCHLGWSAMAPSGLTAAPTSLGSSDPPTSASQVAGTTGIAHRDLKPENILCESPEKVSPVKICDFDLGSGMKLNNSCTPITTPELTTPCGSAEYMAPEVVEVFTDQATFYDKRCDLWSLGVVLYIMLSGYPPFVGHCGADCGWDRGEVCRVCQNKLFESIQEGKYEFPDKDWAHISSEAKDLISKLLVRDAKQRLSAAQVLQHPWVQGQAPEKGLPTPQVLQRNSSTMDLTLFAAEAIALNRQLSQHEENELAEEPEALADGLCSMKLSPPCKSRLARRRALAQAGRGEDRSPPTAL

MKNK2 (human) = MKNK2 (human) (UniProt Q9HBH9)
MYLK (human) = MYLK (human) (UniProt Q15746)
NTRK1 (human) = NTRK1 (human) (UniProt P04629)
PHKG1 (human) = PHKG1 (human) (UniProt Q16816)
Chain of PHKG1 (human) (Q16816 whole entry, looked up): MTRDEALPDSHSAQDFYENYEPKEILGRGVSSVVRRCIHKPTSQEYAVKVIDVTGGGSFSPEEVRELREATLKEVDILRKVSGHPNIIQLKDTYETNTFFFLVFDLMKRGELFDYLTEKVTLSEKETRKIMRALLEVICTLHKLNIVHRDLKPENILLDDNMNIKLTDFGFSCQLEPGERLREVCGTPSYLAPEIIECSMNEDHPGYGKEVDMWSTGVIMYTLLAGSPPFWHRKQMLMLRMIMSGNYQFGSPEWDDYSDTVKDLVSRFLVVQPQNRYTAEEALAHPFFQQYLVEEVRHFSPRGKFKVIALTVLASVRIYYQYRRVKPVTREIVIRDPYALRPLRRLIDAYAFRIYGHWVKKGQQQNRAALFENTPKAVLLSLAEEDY

PRKAA1 or PRKAA2 (rat) = settings: accession and sequence are those of the human protein
PRKACA (human) = PRKACA (human) (UniProt P17612)
PRKCZ (human) = PRKCZ (human) (UniProt Q05513); settings: compound 1.0 µM
ROCK2 (rat) = settings: accession and sequence are those of the human protein
RPS6KA1 KD1 KD2 (human) = RPS6KA1 KD1 KD2 (human) (UniProt Q15418); settings: compound 1.0 µM
SRC (human) = SRC (human) (UniProt P12931)
Chain of SRC (human) (P12931 whole entry, looked up): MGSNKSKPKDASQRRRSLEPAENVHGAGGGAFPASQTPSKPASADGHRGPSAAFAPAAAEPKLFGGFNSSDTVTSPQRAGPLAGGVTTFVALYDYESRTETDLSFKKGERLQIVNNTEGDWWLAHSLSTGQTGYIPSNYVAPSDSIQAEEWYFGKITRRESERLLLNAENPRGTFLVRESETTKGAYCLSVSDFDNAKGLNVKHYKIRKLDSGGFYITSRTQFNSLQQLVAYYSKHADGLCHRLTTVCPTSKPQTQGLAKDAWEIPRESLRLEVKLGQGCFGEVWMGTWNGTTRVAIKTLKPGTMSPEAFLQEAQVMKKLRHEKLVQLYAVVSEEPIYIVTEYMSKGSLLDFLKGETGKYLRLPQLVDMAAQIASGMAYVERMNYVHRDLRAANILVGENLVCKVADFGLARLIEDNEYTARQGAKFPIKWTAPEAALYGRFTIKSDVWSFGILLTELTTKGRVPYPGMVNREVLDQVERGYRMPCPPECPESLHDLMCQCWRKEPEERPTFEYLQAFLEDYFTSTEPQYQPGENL

[1] = molecular target: STK11 CAB39 STRADA (human) (UniProt Q9Y376+Q7RTN6+Q15831)
TTK (human) = TTK (human) (UniProt P33981)

Chain of CSNK2A1 (human) (P68400 whole entry, looked up): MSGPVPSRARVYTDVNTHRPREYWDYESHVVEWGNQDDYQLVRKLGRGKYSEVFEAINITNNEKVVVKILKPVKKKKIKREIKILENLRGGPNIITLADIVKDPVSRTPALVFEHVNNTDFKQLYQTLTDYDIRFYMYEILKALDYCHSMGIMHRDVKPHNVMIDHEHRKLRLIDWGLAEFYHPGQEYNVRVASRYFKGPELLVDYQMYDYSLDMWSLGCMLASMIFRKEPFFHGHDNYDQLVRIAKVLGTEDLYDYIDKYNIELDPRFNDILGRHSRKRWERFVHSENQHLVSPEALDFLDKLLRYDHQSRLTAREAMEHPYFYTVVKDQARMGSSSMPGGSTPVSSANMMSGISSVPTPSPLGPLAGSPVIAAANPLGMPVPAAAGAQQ
Chain of CSK (human) (P41240 whole entry, looked up): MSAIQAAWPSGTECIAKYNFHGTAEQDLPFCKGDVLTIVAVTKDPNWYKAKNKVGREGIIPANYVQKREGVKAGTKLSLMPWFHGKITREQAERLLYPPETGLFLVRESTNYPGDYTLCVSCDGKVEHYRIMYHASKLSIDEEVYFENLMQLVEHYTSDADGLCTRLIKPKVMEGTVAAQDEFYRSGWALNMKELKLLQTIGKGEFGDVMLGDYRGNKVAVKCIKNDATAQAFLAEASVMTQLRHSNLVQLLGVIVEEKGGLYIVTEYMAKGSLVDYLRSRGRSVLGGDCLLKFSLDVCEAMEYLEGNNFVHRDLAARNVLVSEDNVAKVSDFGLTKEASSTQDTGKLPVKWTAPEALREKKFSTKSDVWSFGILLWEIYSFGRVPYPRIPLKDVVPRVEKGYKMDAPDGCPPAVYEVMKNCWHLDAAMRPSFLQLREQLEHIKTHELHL
Chain of CHEK2 (human) (O96017 whole entry, looked up): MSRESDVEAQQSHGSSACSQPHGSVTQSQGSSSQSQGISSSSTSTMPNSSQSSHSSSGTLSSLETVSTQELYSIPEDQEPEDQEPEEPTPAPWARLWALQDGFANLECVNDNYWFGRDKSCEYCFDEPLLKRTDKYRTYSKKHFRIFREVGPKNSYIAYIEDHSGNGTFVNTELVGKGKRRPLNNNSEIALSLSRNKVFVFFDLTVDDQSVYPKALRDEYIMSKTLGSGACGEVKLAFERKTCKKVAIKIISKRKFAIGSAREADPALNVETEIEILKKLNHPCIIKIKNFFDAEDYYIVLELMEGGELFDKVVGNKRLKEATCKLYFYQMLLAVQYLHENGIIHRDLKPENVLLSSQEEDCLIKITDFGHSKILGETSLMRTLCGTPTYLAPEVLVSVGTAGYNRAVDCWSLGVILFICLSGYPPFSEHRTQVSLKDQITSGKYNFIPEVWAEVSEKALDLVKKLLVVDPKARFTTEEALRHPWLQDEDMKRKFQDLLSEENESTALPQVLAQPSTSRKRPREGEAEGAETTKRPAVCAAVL

`COc1ccc(-n2ncc3cnc(Nc4cc(OC)c(OC)c(OCCCN5CCN(C)CC5)c4)nc32)cc1` gave a residual activity (AURKB (human); compound 0.1 µM) of 36%, a residual activity (AURKB (human); compound 1.0 µM) of 11% and a residual activity (CDK2 CCNA2 (human); compound 0.1 µM) of 34%. The residual activity (CDK2 CCNA2 (human); compound 1.0 µM) was 7%, the residual activity (CHEK2 (human); compound 0.1 µM) was 48% and the residual activity (CHEK2 (human); compound 1.0 µM) was 12%. The residual activity (CSK (human); compound 0.1 µM) was 65%, the residual activity (CSK (human); compound 1.0 µM) was 38% and the residual activity (CSNK2A1 (human); compound 0.1 µM) was 33%. The residual activity (CSNK2A1 (human); compound 1.0 µM) was 6%, the residual activity (DAPK1 (human); compound 0.1 µM) was 51% and the residual activity (DAPK1 (human); compound 1.0 µM) was 15%. For the same compound, the residual activity (EEF2K (human); compound 0.1 µM) was 100%, the residual activity (EEF2K (human); compound 1.0 µM) was 91% and the residual activity (EPHB3 (human); compound 0.1 µM) was 86%. The residual activity (EPHB3 (human); compound 1.0 µM) was 16%, the residual activity (ERBB4 (human); compound 0.1 µM) was 60% and the residual activity (ERBB4 (human); compound 1.0 µM) was 17%. The residual activity (FGFR1 (human); compound 0.1 µM) was 20%, the residual activity (FGFR1 (human); compound 1.0 µM) was 8% and the residual activity (GSK3B (human); compound 0.1 µM) was 37%. For the same compound, the residual activity (GSK3B (human); compound 1.0 µM) was 6%, the residual activity (IKBKB (human); compound 0.1 µM) was 86% and the residual activity (IKBKB (human); compound 1.0 µM) was 55%. The residual activity (INSRR (human); compound 0.1 µM) was 78%, the residual activity (INSRR (human); compound 1.0 µM) was 35% and the residual activity (LCK (mouse); compound 0.1 µM) was 10%. For the same compound, the residual activity (LCK (mouse); compound 1.0 µM) was 4%, the residual activity (MAP2K2 (human); compound 0.1 µM) was 55% and the residual activity (MAP2K2 (human); compound 1.0 µM) was 28%. It also gave a residual activity (MAP3K9 (human); compound 0.1 µM) of 7%, a residual activity (MAP3K9 (human); compound 1.0 µM) of 6% and a residual activity (MAPK1 (human); compound 0.1 µM) of 84%. It also gave a residual activity (MAPK1 (human); compound 1.0 µM) of 57%, a residual activity (MAPK13 (human)) of 68% and a residual activity (MAPKAPK3 (human); compound 0.1 µM) of 97%. For the same compound, the residual activity (MAPKAPK3 (human); compound 1.0 µM) was 81%, the residual activity (MARK4 (human)) was 24% and the residual activity (MELK (human); compound 0.1 µM) was 37%. It also gave a residual activity (MELK (human); compound 1.0 µM) of 27%, a residual activity (MINK1 (human); compound 0.1 µM) of 104% and a residual activity (MINK1 (human); compound 1.0 µM) of 57%. For the same compound, the residual activity (MKNK1 (human); compound 0.1 µM) was 59%, the residual activity (MKNK1 (human); compound 1.0 µM) was 17% and the residual activity (MKNK2 (human); compound 0.1 µM) was 67%. For the same compound, the residual activity (MKNK2 (human); compound 1.0 µM) was 17%, the residual activity (MYLK (human); compound 0.1 µM) was 100% and the residual activity (MYLK (human); compound 1.0 µM) was 72%. For the same compound, the residual activity (NTRK1 (human); compound 0.1 µM) was 32%, the residual activity (NTRK1 (human); compound 1.0 µM) was 11% and the residual activity (PHKG1 (human); compound 0.1 µM) was 56%. It also gave a residual activity (PHKG1 (human); compound 1.0 µM) of 12%, a residual activity (PRKAA1 or PRKAA2 (rat); compound 0.1 µM) of 25% and a residual activity (PRKAA1 or PRKAA2 (rat); compound 1.0 µM) of 22%. For the same compound, the residual activity (PRKACA (human); compound 0.1 µM) was 78%, the residual activity (PRKACA (human); compound 1.0 µM) was 26% and the residual activity (PRKCZ (human)) was 78%. For the same compound, the residual activity (ROCK2 (rat); compound 0.1 µM) was 49%, the residual activity (ROCK2 (rat); compound 1.0 µM) was 25% and the residual activity (RPS6KA1 KD1 KD2 (human)) was 7%. For the same compound, the residual activity (SRC (human); compound 0.1 µM) was 7%, the residual activity (SRC (human); compound 1.0 µM) was 3% and the residual activity ([1]; compound 0.1 µM) was 119%. The residual activity ([1]; compound 1.0 µM) was 73%, the residual activity (TTK (human); compound 0.1 µM) was 81% and the residual activity (TTK (human); compound 1.0 µM) was 64%.
